Reference: ChEMBL document CHEMBL3862009 (Bioorg Med Chem Lett, 2016)

Columns and labels:
Histamine H4 receptor [1] = molecular target: T1, Histamine H4 receptor (Homo sapiens, UniProt Q9H3N8); experiment: Antagonist activity at human histamine H4 receptor expressed in human SH-SY5Y cell membranes assessed as inhibition of Imetit-induced [35S]GTPgammaS binding; type: functional
Histamine H4 receptor [2] = molecular target: T1, Histamine H4 receptor; experiment: Intrinsic activity at human histamine H4 receptor expressed in human SH-SY5Y cell membranes by [35S]GTPgammaS binding assay; type: functional
HEK293 = experiment: Selectivity ratio of Ki for human H3 receptor expressed in HEK293 cell membranes to Kb for human histamine H4 receptor expressed in human SH-SY5Y cell membranes; type: cell-based
Histamine H3 receptor [3] = molecular target: T2, Histamine H3 receptor (Homo sapiens, UniProt Q9Y5N1); experiment: Displacement of [125I]iodoproxyfan from human H3 receptor expressed in HEK293 cell membranes after 1 hr
Histamine H3 receptor [4] = molecular target: T2, Histamine H3 receptor; experiment: Antagonist activity at human histamine H3 receptor
Histamine H4 receptor [5] = molecular target: T1, Histamine H4 receptor; experiment: Binding affinity to histamine H4 receptor (unknown origin)
Histamine H3 receptor [6] = molecular target: T2, Histamine H3 receptor; experiment: Binding affinity to histamine H3 receptor (unknown origin)

T2 sequence (Q9Y5N1 whole entry): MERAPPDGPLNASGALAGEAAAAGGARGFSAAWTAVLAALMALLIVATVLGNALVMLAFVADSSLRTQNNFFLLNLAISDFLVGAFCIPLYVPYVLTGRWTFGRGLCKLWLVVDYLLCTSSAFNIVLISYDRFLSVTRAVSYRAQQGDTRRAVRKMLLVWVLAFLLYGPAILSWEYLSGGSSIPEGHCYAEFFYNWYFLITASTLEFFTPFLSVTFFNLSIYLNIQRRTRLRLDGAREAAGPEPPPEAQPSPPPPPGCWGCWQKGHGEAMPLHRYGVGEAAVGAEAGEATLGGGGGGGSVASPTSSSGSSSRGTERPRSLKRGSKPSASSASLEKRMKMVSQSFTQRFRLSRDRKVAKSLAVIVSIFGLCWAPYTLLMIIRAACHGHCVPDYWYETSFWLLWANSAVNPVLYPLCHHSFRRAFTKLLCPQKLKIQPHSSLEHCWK

Kb (Histamine H4 receptor [1]) | Intrinsic activity (Histamine H4 receptor [2]) | Structure (SMILES) | further results
> 10000 nM | 0 | c1ccc(C(OCCCCn2ccnc2)c2nc3ccccc3s2)cc1 (configuration not stated) | –
1.1 nM | 0 | c1ccc(C(OCCCc2c[nH]cn2)c2nc3ccccc3s2)cc1 (configuration not stated) | Selectivity ratio (HEK293): 31; Ki (Histamine H3 receptor [3]): 34 nM
399 nM | 0 | c1ccc(C(OCc2c[nH]cn2)c2nc3ccccc3s2)cc1 (configuration not stated) | –
32 nM | 0 | c1ccc(C(OCCCc2c[nH]cn2)c2cccnc2)cc1 (configuration not stated) | –
100 nM | 0 | c1ccc(C(OCCCc2c[nH]cn2)c2ccc3ccccc3c2)cc1 (configuration not stated) | –
1.6 nM | 0 | Cc1[nH]cnc1CCCOC(c1ccccc1)c1nc2ccccc2s1 (configuration not stated) | –
3.7 nM | 0 | c1ccc(C(OCCc2c[nH]cn2)c2nc3ccccc3s2)cc1 (configuration not stated) | –
19 nM | 0 | c1ccc(C(OCCCc2c[nH]cn2)c2ccccc2)cc1 | Selectivity ratio (HEK293): 0.9; Ki (Histamine H3 receptor [3]): 17 nM; Ki (Histamine H3 receptor [4]): 17 nM
> 10000 nM | 0 | c1ccc(C(OCCn2ccnc2)c2nc3ccccc3s2)cc1 (configuration not stated) | –
– | – | Cn1cnc(CCN)c1 [N-METHYLHISTAMINE] | Ki (Histamine H4 receptor [5]): 11000 nM; Ki (Histamine H3 receptor [6]): 20000 nM
> 10000 nM | 0 | Cn1cnc(CCCOC(c2ccccc2)c2nc3ccccc3s2)c1 (configuration not stated) | –
> 10000 nM | 0 | Cn1cncc1CCCOC(c1ccccc1)c1nc2ccccc2s1 (configuration not stated) | –
> 10000 nM | 0 | Cc1nc(CCCOC(c2ccccc2)c2nc3ccccc3s2)c[nH]1 (configuration not stated) | –
> 10000 nM | 0 | c1ccc(C(OCCCn2ccnc2)c2nc3ccccc3s2)cc1 (configuration not stated) | –
17 nM | 0 | c1ccc(-c2ccc(C(OCCCc3c[nH]cn3)c3ccccc3)cc2)cc1 (configuration not stated) | –
29 nM | 0 | c1ccc(C(OCCCc2c[nH]cn2)c2cncnc2)cc1 (configuration not stated) | –
